This note sets out measurements from patent US8569511B2, “Substituted 3-(1H-benzo[d]imidazol-2-yl)-1H-indazole analogs as inhibitors of the PDK1 kinase” (University of Utah Research Foundation, priority 2011, dated 2013).

The subject of one test is AN3-CA cells. Description: Mouse subcutaneous xenograft tumor model, tumor volume. Particulars: 50 mg/kg IP, daily Monday through Friday for two weeks. Type of test: in vivo, athymic nude mice. The procedure: The in vivo effects of compounds were determined in a mouse subcutaneous xenograft tumor model wherein AN3-CA cells were implanted subcutaneously into the hind flank of athymic nude mice. Briefly, seven-week-old mice were injected with 2×10^6 AN3-CA cells on the right hind flank. […] The vehicle for these studies was 20% DMSO, 20% cremophor, and 60% water. The test compound was administered on daily schedule (Monday through Friday) for two weeks at a concentration of 50 mg/kg by intraperitoneal (“IP”) injection. The mice were sacrificed and the tumors were excised for western blot analysis. Tumor volume was determined using the formula L×W2×0.5, where L is the longest length, and W is the shortest length. Tumor volume and body weight was measured twice a week.
The study was carried out as described above for 2,2-difluoro-N-(3-(5-morpholino-1H-benzo[d]imidazol-2-yl)-1H-indazol-5-yl)cyclopropanecarboxamide, except that the test compound used was 2,2-difluoro-N-(3-(5-(2-methylmorpholino)-1H-benzo[d]imidazol-2-yl)-1H-indazol-5-yl)cyclopropanecarboxamide. Data are shown in FIGS. 10A and 10B for the effect of the compound on tumor volume and body weight, respectively.

Test [1] deals with T1, PDK1 (Homo sapiens (Human), UniProt O15530). Description: Time resolved-FRET LanthaScreen Kinase Binding Assay. The source says:
Binding of the tracer to the kinase is detected using a europium-labeled anti-tag antibody, which binds to the kinase of interest. […] Binding of an inhibitor to the kinase competes for binding with the tracer, resulting in a loss of FRET.
Activity of compounds was routinely assessed using a secondary assay as described herein. The secondary assay was a time resolved-FRET LanthaScreen Kinase Binding Assay (Invitrogen Corporation, Carlsbad, Calif.). This assay evaluates the ability of the test compound to compete with a fluorescently-labeled tracer molecule to bind in the ATP pocket of a kinase. The assay signal is generated when a Europium-conjugated anti-His tag antibody (Invitrogen) bound to the His-tagged kinase produces a TR-FRET signal with the tracer molecule bound in the ATP pocket of the kinase. […] After 60 minutes of incubation at room temperature, the TR-FRET signal was measured on an EnVision microplate reader.
(§1) IC50 values are determined using GraphPad Prism 5 software. The data were entered as an X-Y plot into the software as percent inhibition for each concentration of the drug. The concentration values of the drug were log transformed and the nonlinear regression was carried out using the “sigmoidal dose-response (variable slope)” option within the GraphPad software to model the data and calculate IC50 values.

The next test concerns T47D. Briefly: Cell viability assay, cancer cell line panel. Type of test: cell-based. Particulars: Homo sapiens, mutation PIK3CA.
Test [2] has as its target T1, PDK1. Briefly: PDK1 ATP Depletion Kinase Assay (Kinase-Glo luminescence). Type of test: biochemical. The following applies: PDKtide substrate, read-out: PDK1 Kinase assays (IC50, μM) Activity Assay. On the procedure: Test compounds were diluted to desired concentrations in kinase reaction buffer and briefly incubated with human recombinant PDK1 kinase which is histidine-tagged (Invitrogen Corporation, Carlsbad, Calif.). The reaction was subsequently initiated by the addition of ATP and PDKtide substrate (Millipore Corporation, Billerica, Massachussetts). […] After an incubation of 60 minutes at room temperature, 10 μl of the Kinase-Glo reagent (Promega Corporation, Madison, Wis.) was added to each well and incubated for an additional 10 minutes. Luminescence was measured on an EnVision microplate reader (PerkinElmer). The amount of luminescence from each reaction is inversely correlated with PDK1 kinase activity. Percent inhibition and IC50 values can be calculated by comparing enzyme activity in drug-treated wells to the appropriate controls, e.g. vehicle control.
as §1
For orientation: In Kinase-Glo more light means more ATP remaining.

The next test concerns MCF-7. Description: Cell viability assay, cancer cell line panel. Type of test: cell-based. Particulars: Homo sapiens, MCF7; mutation PIK3CA.
A further test relates to SK-OV-3. Description: Cell viability assay, cancer cell line panel. Type of test: cell-based. The following applies: Homo sapiens, mutation PIK3CA.
The next test has as its system 786-O. Description: Cell viability assay, cancer cell line panel. Format: cell-based. Particulars: Homo sapiens, 786-0; mutation PTEN.
The test system of test [3] is phosphorylation of the ribosomal protein s6 in AN3-CA cells. Description: In-cell western, phosphorylation of ribosomal protein s6. Particulars: Homo sapiens, 2 hours. Type of test: cell-based. The procedure:
Cells were washed with PBS and whole cell lysates were prepared by incubating cells in […] (Invitrogen Corporation, Carlsbad, Calif.) supplemented with Protease Inhibitor Cocktail (Roche Applied Science, a division of Roche Diagnostics Corporation, Indianapolis, Ind.) and Phosphatase Inhibitor Cocktail (Roche) on ice for 30 minutes. After centrifuging the lysates at 12,000 rpm for 10 minutes at 4° C., the supernatant was collected. Protein concentration was determined using BCA Assay. The same amounts of protein were run on NuPAGE 4-12% Bis-Tris Gel, and then transferred onto a PVDF membrane. After blocking with Odyssey Blocking Buffer for 1 hour at room temperature, the membrane was incubated with primary antibodies (Cell Signaling Technology, Inc., Danvers, Massachussetts) overnight at 4° C. followed by 40 minute incubation with IRDye secondary antibody. The membrane was scanned using Odyssey Infrared Imaging System. […]
Briefly, ribosomal protein S6 was detected using differentially labeled antibodies specific for either total S6 protein or the phosphorylated form of the protein. In-cell detection with visual overlay of the signals for each antibody, e.g. total ribosomal protein s6 (red) and phospho-ribosomal protein s6 (green), allowed simultaneous detection and quantitation. Quantitation of signal intensity allowed determination of IC50 values for the test compounds.

For a further test, the system named is LNCap. Description: Cell viability assay, cancer cell line panel. Type of test: cell-based. Particulars: Homo sapiens, mutation PTEN.
The next test deals with PC-3. Briefly: Cell viability assay, cancer cell line panel. Type of test: cell-based. The following applies: Homo sapiens, mutation PTEN.
Test [4] deals with phosphorylation of the ribosomal S6 protein. Description: Western blot of phospho-S6 in excised xenograft tumors. Format: in vivo, athymic nude mice. The following applies: western blot of tumors after the study, 50 mg/kg IP. The procedure: Cells were washed with PBS and whole cell lysates were prepared by incubating cells in […] (Invitrogen Corporation, Carlsbad, Calif.) supplemented with Protease Inhibitor Cocktail (Roche Applied Science, a division of Roche Diagnostics Corporation, Indianapolis, Ind.) and Phosphatase Inhibitor Cocktail (Roche) on ice for 30 minutes. After centrifuging the lysates at 12,000 rpm for 10 minutes at 4° C., the supernatant was collected. Protein concentration was determined using BCA Assay. The same amounts of protein were run on NuPAGE 4-12% Bis-Tris Gel, and then transferred onto a PVDF membrane. […]
The in vivo effects of compounds were determined in a mouse subcutaneous xenograft tumor model wherein AN3-CA cells were implanted subcutaneously into the hind flank of athymic nude mice. […] Tumor volume was determined using the formula L×W2×0.5, where L is the longest length, and W is the shortest length. Tumor volume and body weight was measured twice a week.
Following the study, the tumors from the vehicle and test compound groups were removed from the animals and analyzed for phosho-S6 levels by western blot (FIG. 10C). […]
(In general: In western blotting, separated proteins are transferred to a membrane and probed.)

The mark [5] stands for this setting: TR-FRET Lanthascreen Kinase Binding Assay, read-out: PDK1 Kinase assays (IC50, μM) Binding Assay.
The mark [6] stands for this setting: tested in triplicate, FIG. 5, read-out: IC50 in PDK1 time resolved-FRET LanthaScreen Kinase Binding Assay.

T1 sequence (O15530 whole entry): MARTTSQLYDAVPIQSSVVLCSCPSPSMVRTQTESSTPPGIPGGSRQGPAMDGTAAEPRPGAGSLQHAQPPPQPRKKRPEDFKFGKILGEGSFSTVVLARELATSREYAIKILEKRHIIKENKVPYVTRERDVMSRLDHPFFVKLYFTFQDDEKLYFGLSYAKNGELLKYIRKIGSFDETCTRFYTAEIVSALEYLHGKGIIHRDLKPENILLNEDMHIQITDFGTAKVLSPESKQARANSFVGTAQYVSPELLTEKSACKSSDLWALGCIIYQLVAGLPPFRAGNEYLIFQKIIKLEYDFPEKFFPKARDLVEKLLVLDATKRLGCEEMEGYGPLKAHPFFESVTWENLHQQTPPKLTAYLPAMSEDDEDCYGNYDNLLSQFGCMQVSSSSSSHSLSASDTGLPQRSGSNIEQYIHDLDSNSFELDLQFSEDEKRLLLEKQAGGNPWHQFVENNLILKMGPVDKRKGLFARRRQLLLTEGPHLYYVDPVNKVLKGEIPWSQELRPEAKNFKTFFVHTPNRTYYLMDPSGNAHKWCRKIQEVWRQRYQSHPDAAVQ

The term IC50 denotes the concentration needed to halve the response being measured. Take `O=C(Nc1ccc2[nH]nc(-c3nc4ccc(N5CCOCC5)cc4[nH]3)c2c1)C1CC1(F)F` (centres unmarked) [Compound 1, 2,2-difluoro-N-(3-(5-morpholino-1H-benzo[d]imidazol-2-yl)-1H-indazol-5-yl)cyclopropanecarboxamide]: in the test with AN3-CA cells, the “Effect on tumor burden (tumor volume) compared to the vehicle control” value is “modest effect on tumor burden”. In addition, the IC50 on PDK1 [1] (setting [5]) was found to be 0.08 µM; at PDK1 [1] (setting [6]) it was 0.08 µM; with T47D, 12800 nM; at PDK1 [2], 0.143 µM; with MCF-7, 8790 nM; in the test with SK-OV-3 it was 1890 nM. Also, the IC50 turned out to be 6010 nM in the test with 786-O, 75.6 nM in test [3], 24800 nM in the test on LNCap and 7560 nM in the test with PC-3.

For `CC1CN(c2ccc3nc(-c4n[nH]c5ccc(NC(=O)C6CC6(F)F)cc45)[nH]c3c2)CCO1` (centres unmarked) [Compound 2, 2,2-difluoro-N-(3-(5-(2-methylmorpholino)-1H-benzo[d]imidazol-2-yl)-1H-indazol-5-yl)cyclopropanecarboxamide], in the test on AN3-CA cells, the “Effect on tumor burden (tumor volume) compared to the vehicle control” value was “profound and significant effect on tumor burden”. Moreover, the half-maximal inhibitory concentration (IC50) at PDK1 [1] (setting [5]) came out at 0.094 µM; on PDK1 [1] (setting [6]) it was 0.094 µM; at PDK1 [2], 0.159 µM; in [3] it was 76.7 nM. Moreover, in test [4], the “Phospho-S6 levels in tumors compared to the vehicle group” value is recorded as “down-regulation of phospho-S6 levels”.
